Experimental data from patent US20150038739A1, “METHOD FOR MANUFACTURING REFINED METHIONINE” (SUMITOMO CHEMICAL COMPANY, LIMITED, priority 2012, published 2015).

CSCC[C@H](N)C(=O)O [methionine]
solubility of methionine in pure water (saturated solubility) (pure water, normal temperature and normal pressure): about 3.0 % by weight | saturated solubility of methionine in alkaline recovered wash water (under 2.0% by weight of concentration of potassium): about 5.0 % by weight
